Several values for one entry are separate records, joined by “and”; a condition that tells them apart may be missing. Equal entries are not always repeated.
Molecular target: P2Y12 receptor (Homo sapiens, UniProt Q9H244)
Experiment: [33P]-2MeS-ADP binding to recombinant human P2Y12 membranes (Assay 3)
Design: expressed in transfected cells; host or cells: HEK cells
Conditions: for IC50 / Ki: HEK cell membranes expressing human P2Y12, competition with 33P 2MeS-ADP
Description: 3. Human P2Y12 Recombinant Cell Membrane Binding Assay with ^33P 2MeS-ADP.
The ability of a test compound to bind to the P2Y12 receptor was evaluated in a recombinant cell membrane binding assay. In this competitive binding assay, the test compound competed against a radiolabelled agonist for binding to the P2Y12 receptor, expressed on the cell membrane. Inhibition of binding of the labeled material was measured and correlated to the amount and potency of the test compound. Data from this assay are presented in Table F. This binding assay is a modification of the procedure in Takasaki, J. et. al, Mol. Pharmacol., 2001, Vol. 60, pg. 432.
HEK cells were transfected with the pDONR201P2Y12 vector and cultured in MEM with GlutaMAX I, Earle's salts, 25 mM HEPES (Gibco # 42360-032) containing 10% dialyzed FBS (Gibco # 26400-044), 100 μM nonessential amino acids (Gibco # 11140-050), 1 mM sodium pyruvate (Gibco # 11360-070), 0.05% geneticin (Gibco #10131-027), 3 μg/mL blasticidin (Fluka brand from Sigma # 15205), and 0.5 μg/mL puromycin (Sigma # P-8833).
Confluent cells were washed once with cold DPBS (Gibco # 14190-136). Fresh DPBS was added and the cells were scraped and centrifuged at 500×g for 5 minutes at 4° C. The cell pellets were resuspended in TEE buffer (25 mM Tris, 5 mM EDTA, 5 mM EGTA) containing 1 protease inhibitor cocktail tablet (Roche # 1 873 580) per 50 mL (called TEE+Complete) and can be flash frozen at this point.
In one embodiment, frozen cell pellets were used to prepare the membranes. In that embodiment, the frozen cell pellets were thawed on ice. In another embodiment, cell pellets may be used without flash freezing before moving on to the next step.
Cell pellets were resuspended in TEE buffer+Complete and homogenized in a glass dounce for 12 strokes. The cell suspension was centrifuged at 500×g for 5 minutes at 4° C. The supernatant was saved and centrifuged at 20,000×g for 20 minutes at 4° C. This supernatant was discarded and the cell pellet resuspended in TEE buffer+Complete and homogenized in a glass dounce for 12 strokes. This suspension was centrifuged at 20,000×g for 20 minutes at 4° C. and the supernatant discarded. The pellet was resuspended in assay buffer (50 mM Tris, 100 mM NaCl, 1 mM EDTA) containing one protease inhibitor cocktail tablet per 50 mL, and can be flash frozen as 1 mL aliquots at this point.
Dry compounds were diluted as 10 mM DMSO stocks and tested in a seven-point, three-fold dilution series run in triplicate beginning at 10 μM, final concentration. A 1 mM DMSO intermediate stock was made in a dilution plate and from this the seven dilutions were made to 5× the final concentration in assay buffer containing 0.02% BSA.
The plates were incubated at room temperature for 1 hour. The reaction was stopped using a cell harvester to transfer the reaction mixture onto GF/B UniFilter plates (Perkin Elmer # 6005177), and washed three times with wash buffer (50 mM Tris), filtering between each wash. The filter plates were dried for approximately 20 minutes in an oven at 50° C. Back seals were adhered to the filter plates and 25 uL of Microscint 20 scintillation fluid (Perkin Elmer # 6013621) were added. The filter plates were sealed, shaken for 30 minutes, and counted on a Top Count. Data were analyzed using a four-parameter curve fit with a fixed minimum and maximum experimentally defined as the average positive and negative controls on each plate, and with a hill slope equal to one.
The table below presents the IC50, Ki, and percent inhibition values for compounds tested in either washed human platelets membrane binding assay (assay #1 above) or recombinant cell membrane binding assay (Assay #3, above). Example number refers to the compound prepared as described in the example noted in the section Working Examples, above. The highest concentration of candidate compound tested is listed for each experimental run presented. […]

[1] = at highest concentration tested, 10 μM

P2Y12 receptor, sequence (Q9H244 whole entry): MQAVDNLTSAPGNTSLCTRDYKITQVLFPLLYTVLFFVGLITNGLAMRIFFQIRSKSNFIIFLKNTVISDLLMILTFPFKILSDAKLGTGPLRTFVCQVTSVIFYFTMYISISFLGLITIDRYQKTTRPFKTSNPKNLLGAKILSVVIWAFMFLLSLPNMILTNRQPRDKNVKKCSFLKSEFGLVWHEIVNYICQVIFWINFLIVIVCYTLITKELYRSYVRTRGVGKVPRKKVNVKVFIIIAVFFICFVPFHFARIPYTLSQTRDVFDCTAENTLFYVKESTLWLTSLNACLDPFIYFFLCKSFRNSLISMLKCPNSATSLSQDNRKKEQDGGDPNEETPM

IC50 | Ki | inhibition at 10 µM [1] | % Inhibition [1] | Compound
0.052 µM | 0.029 µM | 93.2% |  | CCc1cc2c(N3CCN(C(=O)c4ccc(-c5ccccc5)cc4)CC3)nc(SCCO)nc2s1 [Example 32, 2-({4-[4-(1′-Biphenyl-4-ylcarbonyl)piperazin-1-yl]-6-ethylthieno[2,3-d]pyrimidin-2-yl}thio)ethanol]
> 10 µM | > 6.7 µM | -4.55% |  | C#CCCCC(=O)N1CCN(c2nc(SCC(=O)OC)nc3sc(CC)cc23)CC1 [Example 35, Methyl {[6-ethyl-4-(4-hex-5-ynoylpiperazin-1-yl)thieno[2,3-d]pyrimidin-2-yl]thio}acetate]
0.22 µM | 0.15 µM | 97.6% |  | C#CCCCCC(=O)N1CCN(c2nc(SCC(=O)OC)nc3sc(CC)cc23)CC1 [Example 36, Methyl {[6-ethyl-4-(4-hept-6-ynoylpiperazin-1-yl)thieno[2,3-d]pyrimidin-2-yl]thio}acetate]
1.25 µM | 0.84 µM | 78.3% |  | C#CCCC(=O)N1CCN(c2nc(SCC(=O)OC)nc3sc(CC)cc23)CC1 [Example 37, Methyl {[6-ethyl-4-(4-pent-4-ynoylpiperazin-1-yl)thieno[2,3-d]pyrimidin-2-yl]thio}acetate]
0.6 µM | 0.4 µM | 77.2% |  | CCc1cc2c(N3CCN(C(=O)C4COc5ccccc5O4)CC3)nc(SCC(=O)OC)nc2s1 (stereo not shown) [Example 38, Methyl ({4-[4-(2,3-dihydro-1,4-benzodioxin-2-ylcarbonyl)piperazin-1-yl]-6-ethylthieno[2,3-d]pyrimidin-2-yl}thio)acetate]
> 10 µM | > 6.7 µM | 43.1% |  | CCc1cc2c(N3CCN(C(=O)CC(C)CC(C)(C)C)CC3)nc(SCC(=O)OC)nc2s1 (stereo not shown) [Example 39, Methyl ({6-ethyl-4-[4-(3,5,5-trimethylhexanoyl)piperazin-1-yl]thieno[2,3-d]pyrimidin-2-yl}thio)acetate]
4.15 µM | 2.76 µM | 59% |  | CCc1cc2c(N3CCN(C(=O)CCC4CCCC4)CC3)nc(SCC(=O)OC)nc2s1 [Example 40, Methyl ({4-[4-(3-cyclopentylpropanoyl)piperazin-1-yl]-6-ethylthieno[2,3-d]pyrimidin-2-yl}thio)acetate]
2.57 µM | 1.72 µM | 71.6% |  | CCc1cc2c(N3CCN(C(=O)CCCC(=O)OC)CC3)nc(SCC(=O)OC)nc2s1 [Example 41, Methyl 5-(4-{6-ethyl-2-[(2-methoxy-2-oxoethyl)thio]thieno[2,3-d]pyrimidin-4-yl}piperazin-1-yl)-5-oxopentanoate]
5.74 µM | 3.83 µM | 52.3% |  | CCc1cc2c(N3CCN(C(=O)CCC(=O)OC)CC3)nc(SCC(=O)OC)nc2s1 [Example 42, Methyl 4-(4-{6-ethyl-2-[(2-methoxy-2-oxoethyl)thio]thieno[2,3-d]pyrimidin-4-yl}piperazin-1-yl)-4-oxobutanoate]
2.38 µM | 1.58 µM | 78.2% |  | CCc1cc2c(N3CCN(C(=O)CCCCC(=O)OC)CC3)nc(SCC(=O)OC)nc2s1 [Example 43, Methyl 6-(4-{6-ethyl-2-[(2-methoxy-2-oxoethyl)thio]thieno[2,3-d]pyrimidin-4-yl}piperazin-1-yl)-6-oxohexanoate]
4.03 µM | 2.69 µM | 63.6% |  | CCc1cc2c(N3CCN(C(=O)CC(=O)OC)CC3)nc(SCC(=O)OC)nc2s1 [Example 44, Methyl 3-(4-{6-ethyl-2-[(2-methoxy-2-oxoethyl)thio]thieno[2,3-d]pyrimidin-4-yl}piperazin-1-yl)-3-oxopropanoate]
> 10 µM | > 6.7 µM | 42.5% |  | CCc1cc2c(N3CCN(C(=O)c4ccc(C)cc4)CC3)nc(SCC(=O)OC)nc2s1 [Example 45, Methyl ({6-ethyl-4-[4-(4-methylbenzoyl)piperazin-1-yl]thieno[2,3-d]pyrimidin-2-yl}thio)acetate]
> 10 µM | > 6.7 µM | 41.8% |  | CCc1cc2c(N3CCN(C(=O)c4ccc(C(F)(F)F)cc4)CC3)nc(SCC(=O)OC)nc2s1 [Example 46, Methyl [(6-ethyl-4-{4-[4-(trifluoromethyl)benzoyl]piperazin-1-yl}thieno[2,3-d]pyrimidin-2-yl)thio]acetate]
5.44 µM | 3.63 µM | 48.6% |  | CCc1cc2c(N3CCN(C(=O)/C=C/c4ccccc4)CC3)nc(SCC(=O)OC)nc2s1 [Example 47, Methyl [(6-ethyl-4-{4-[(2E)-3-phenylprop-2-enoyl]piperazin-1-yl}thieno[2,3-d]pyrimidin-2-yl)thio]acetate]
0.19 µM | 0.13 µM | 95.8% |  | CCc1cc2c(N3CCN(C(=O)c4ccc(-n5cccn5)cc4)CC3)nc(SCC(=O)OC)nc2s1 [Example 48, Methyl [(6-ethyl-4-{4-[4-(1H-pyrazol-1-yl)benzoyl]piperazin-1-yl}thieno[2,3-d]pyrimidin-2-yl)thio]acetate]
5.52 µM | 3.68 µM | 56.8% |  | CCc1cc2c(N3CCN(C(=O)c4ccc(OC(F)(F)F)cc4)CC3)nc(SCC(=O)OC)nc2s1 [Example 49, Methyl [(6-ethyl-4-{4-[4-(trifluoromethoxy)benzoyl]piperazin-1-yl}thieno[2,3-d]pyrimidin-2-yl)thio]acetate]
> 10 µM | > 6.7 µM | 40.3% |  | CCc1cc2c(N3CCN(C(=O)c4cccc5ccccc45)CC3)nc(SCC(=O)OC)nc2s1 [Example 50, Methyl ({6-ethyl-4-[4-(1-naphthoyl)piperazin-1-yl]thieno[2,3-d]pyrimidin-2-yl}thio)acetate]
1.58 µM | 1.05 µM | 74.2% |  | CCc1cc2c(N3CCN(C(=O)c4cc(F)cc(F)c4)CC3)nc(SCC(=O)OC)nc2s1 [Example 51, Methyl ({4-[4-(3,5-difluorobenzoyl)piperazin-1-yl]-6-ethylthieno[2,3-d]pyrimidin-2-yl}thio)acetate]
2.67 µM | 1.78 µM | 67.7% |  | CCc1cc2c(N3CCN(C(=O)c4ccc(C#N)cc4)CC3)nc(SCC(=O)OC)nc2s1 [Example 52, Methyl ({4-[4-(4-cyanobenzoyl)piperazin-1-yl]-6-ethylthieno[2,3-d]pyrimidin-2-yl}thio)acetate]
2.33 µM | 1.56 µM | 68.8% |  | CCc1cc2c(N3CCN(C(=O)c4cc(F)ccc4F)CC3)nc(SCC(=O)OC)nc2s1 [Example 53, Methyl ({4-[4-(2,5-difluorobenzoyl)piperazin-1-yl]-6-ethylthieno[2,3-d]pyrimidin-2-yl}thio)acetate]
6.19 µM and 4.44 µM | 3.56 µM and 2.96 µM | 47.8% | 61.77% | CCc1cc2c(N3CCN(C(=O)c4ccc(N(C)C)cc4)CC3)nc(SCC(=O)OC)nc2s1 [Example 54, Methyl [(4-{4-[4-(dimethylamino)benzoyl]piperazin-1-yl}-6-ethylthieno[2,3-d]pyrimidin-2-yl)thio]acetate]
1.47 µM | 0.98 µM | 61.2% |  | CCc1cc2c(N3CCN(C(=O)c4ccc5ccccc5c4)CC3)nc(SCC(=O)OC)nc2s1 [Example 55, Methyl ({6-ethyl-4-[4-(2-naphthoyl)piperazin-1-yl]thieno[2,3-d]pyrimidin-2-yl}thio)acetate]

Source: patent publication US20080176857A1, “4-Piperazinnylthieno[2,3-d]Pyrimidine Compounds as Platelet Aggregation Inhibitors” (priority 2005, published 2008)
